Assays:
CHO cells [1] = assay: Effect of addition of L-cysteine derivatives to feed medium on proliferation of CHO cells and antibody production (3); type: cell-based, Chinese hamster; conditions: 58 mM in feed medium, 11 days culture, compared to the case without addition of L-cysteine; for cell count: FIG. 6; for antibody production amount: FIG. 7
Experimental: (§1) CELLiST (registered trademark) Basal media (Ajinomoto Co., Ltd.: BASAL3; containing 1.3 mM L-cysteine) was added with LR3-IGF-1 (SIGMA-ALDRICH: I1271-1MG, final concentration of 50 μg/mL) and L-Glutamine (Thermo Fisher SCIENTIFIC: 25030081, final concentration of 6 mM), to prepare a basal medium.
Feed media each containing 82 g/L Cellvento (registered trademark) Feed-210 (Merck: 1.02488.0005), 70 g/L glucose (Wako Pure Chemical Industries, Ltd.: 043-31163), and L-cysteine, Compound 4, Compound 8, Compound 9, or Compound 11 each at 58 mM were prepared. In addition, a feed medium without addition of L-cysteine, which only contained 82 g/L Cellvento (registered trademark) Feed-210 and 70 g/L glucose, was prepared. Separately, a tyrosine concentrate (L-tyrosine disodium salt dihydrate (Merck: 122666-87-9) 74.82 g/L, pH 11.3) was prepared.
A 30 mL-aliquot of a CHO cell suspension adjusted to 3×10^5 cells/mL using the prepared basal medium was seeded into 125 mL-volume flasks (CORNING: 431143), and cultured for 11 days. The culture was carried out with n=2 for all experimental groups. The culture temperature was 37° C. and the agitation speed was 110 rpm. A 1.8 mL-aliquot of each of the prepared feed media and a 120 μL-aliquot of the tyrosine concentrate were added on days 4, 7, and 9 from the start of the culture. A cell culture broth was sampled on days 4, 7, 9, and 11 from the start of the culture, and the viable cell count was measured using a viable/dead cells autoanalyzer Vi-CELL™ XR (Beckman Coulter), and the antibody production amount was measured using Octet QK (FORTEBIO).

[2] = Stability of L-cysteine derivatives in buffer solution (crystal precipitation by visual observation); type: physicochemical; conditions: 58 mM in PBS buffer pH 7.0 to 7.2; for relative stability compared with L-cysteine: 5° C. in the dark; for crystal precipitation, Days 0 / crystal precipitation, Days 3 / crystal precipitation, Days 7 / crystal precipitation, Days 14 / crystal precipitation, Days 21 / crystal precipitation, Days 24: stored at 5° C. in the dark; for crystal precipitation, Days 0: day 0; for crystal precipitation, Days 3: day 3; for crystal precipitation, Days 7: day 7; for crystal precipitation, Days 14: day 14; for crystal precipitation, Days 21: day 21; for crystal precipitation, Days 24: day 24
Experimental: In this Example, the stability of L-cysteine derivatives in a buffer solution was evaluated.
In the table, “+” to “++++” indicate that crystal precipitation was observed, and the higher the number of “+”, the greater the degree of precipitation.

CHO cells [3] = assay: Effect of addition of L-cysteine derivatives to feed medium on proliferation of CHO cells and antibody production (2); type: cell-based, Chinese hamster; conditions: for proliferation performance of cells: 14.5 mM in feed medium, L-cysteine in the feed medium substituted; for proliferation performance of cells / cell count, dependence on concentration: FIG. 4; for IgG production amount: 58.0 mM in feed medium; for IgG production amount / IgG production amount, dependence on concentration: FIG. 5; for cell count, dependence on concentration / IgG production amount, dependence on concentration: 14.5, 29, 58 mM in feed medium
Experimental: as §1
Feed media each containing 82 g/L Cellvento (registered trademark) Feed-210 (Merck: 1.02488.0005), 70 g/L glucose (Wako Pure Chemical Industries, Ltd.: 043-31163), and L-cysteine, Compound 3S, or Compound 3R each at 14.5 mM, 29 mM, or 58 mM were prepared. Separately, a tyrosine concentrate (L-tyrosine disodium salt dihydrate (Merck: 122666-87-9) 74.82 g/L, pH 11.3) was prepared.
A 3 mL-aliquot of a CHO cell suspension adjusted to 3×10^5 cells/mL using the prepared basal medium was seeded into a 6 well plate (CORNING, Cat. No. CLS3471), and cultured for 14 days. The culture was carried out with n=2 for all experimental groups. The culture temperature was 37° C. and the agitation speed was 110 rpm. A 0.18 mL-aliquot of each of the prepared feed media and a 12 μL-aliquot of the tyrosine concentrate were added on days 4, 7, 9, and 11 from the start of the culture. A cell culture broth was sampled on days 4, 7, 9, 11, and 14 from the start of the culture, and the viable cell count was measured using a viable/dead cells autoanalyzer Vi-CELL™ XR (Beckman Coulter), and the antibody production amount on days 11 and 14 from the start of the culture was measured using Octet QK (FORTEBIO).

relative stability compared with L-cysteine [2]	crystal precipitation, Days 0 [2]	crystal precipitation, Days 3 [2]	crystal precipitation, Days 7 [2]	crystal precipitation, Days 14 [2]	crystal precipitation, Days 21 [2]	crystal precipitation, Days 24 [2]	SMILES	cell count (CHO cells [1])	antibody production amount (CHO cells [1])	ability to substitute for L-cysteine (CHO cells [3]; in feed medium)	proliferation performance of cells (CHO cells [3])	IgG production amount (CHO cells [3])	cell count, dependence on concentration (CHO cells [3])	IgG production amount, dependence on concentration (CHO cells [3])
more stable than L-cysteine	−	−	−	−	−	−	CC(C)OC(=O)C1(C)N[C@H](C(=O)O)CS1 (mixture of isomers) [Compound 4, (2RS,4R)-2-methyl-2,4-thiazolidinedicarboxylic acid 2-i-propyl ester]	higher than those of the case without addition of L-cysteine	higher than those of the case without addition of L-cysteine					
more stable than L-cysteine	−	−	−	−	−	−	CC(C)(C)OC(=O)C1(C)N[C@H](C(=O)O)CS1 (mixture of isomers) [Compound 6, (2RS,4R)-2-methyl-2,4-thiazolidinedicarboxylic acid 2-t-butyl ester]							
more stable than L-cysteine	−	−	−	−	−	−	CCOC(=O)C1N[C@H](C(=O)O)CS1 (mixture of isomers) [Compound 8, (2RS,4R)-2,4-thiazolidinedicarboxylic acid 2-ethyl ester]	higher than those of the case without addition of L-cysteine	higher than those of the case without addition of L-cysteine					
more stable than L-cysteine	−	−	−	−	−	−	COC(=O)C1(Cc2ccc(O)cc2)N[C@H](C(=O)O)CS1 (mixture of isomers) [Compound 9, (2RS,4R)-2-(4-hydroxyphenyl)methyl-2,4-thiazolidinedicarboxylic acid 2-methyl ester]	higher than those of the case without addition of L-cysteine	higher than those of the case without addition of L-cysteine					
							COC(=O)C1(CC(C)C)N[C@H](C(=O)O)CS1 (mixture of isomers) [Compound 11, (2RS,4R)-2-i-butyl-2,4-thiazolidinedicarboxylic acid 2-methyl ester]	decreased	decreased					
							COC(=O)[C@@]1(C)N[C@H](C(=O)O)CS1 (stereo in doubt) [Compound 3, (2RS,4R)-2-methyl-2,4-thiazolidinedicarboxylic acid 2-methyl ester]			able to substitute for L-cysteine				
more stable than L-cysteine	−	−	−	−	−	−	COC(=O)[C@]1(C)N[C@H](C(=O)O)CS1 (stereo in doubt) [Compound 3R, (2RS,4R)-2-methyl-2,4-thiazolidinedicarboxylic acid 2-methyl ester]				approximately 70%	equivalent to that of the group adding 14.5 mM or 29.0 mM of L-cysteine hydrochloride monohydrate	increased in a concentration-dependent manner	increased in a concentration-dependent manner
more stable than L-cysteine	−	−	−	−	−	−	COC(=O)[C@@]1(C)N[C@H](C(=O)O)CS1 (stereo in doubt) [Compound 3S, (2RS,4R)-2-methyl-2,4-thiazolidinedicarboxylic acid 2-methyl ester]				approximately 70%	equivalent to that of the group adding 14.5 mM or 29.0 mM of L-cysteine hydrochloride monohydrate	increased in a concentration-dependent manner	increased in a concentration-dependent manner

Source: patent US20230044979A1, “ANIMAL CELL CULTURING METHOD” (AJINOMOTO CO., INC., priority 2020, published 2023)
